Results published in patent US10683329B2, “Dual-site BACE1 inhibitors” (priority 2014, dated 2020).
Where a SMILES comes first, the peptide text is derived from it. [ ]: non-standard residue; d: D form. The star is where a group is joined. Succinyl(4-O-cholesteryl) = CC(C)CCC[C@@H](C)[C@H]1CC[C@H]2[C@@H]3CC=C4C[C@@H](OC(=O)CCC(=O)*)CC[C@]4(C)[C@H]3CC[C@]12C; Sta = CC(C)C[C@H](N)[C@@H](O)CC(=O)O; PEG4 = NCCOCCOCCOCCOCCC(=O)O

The compounds below were run against T1, BACE1 (Homo sapiens, UniProt P56817) (assay: Cellular Aβ-lowering assay (Aβ40 ELISA of culture supernatant)). Conditions: Aβ40 in supernatant of human HEK293 cells stably transfected with human APP wt (APP695); 18-20 hrs incubation; read-out: IC 50.
T1 construct: Human HEK293 cells which are stably transfected with a vector expressing a cDNA of the human APP wt gene (APP695); endogenous in cells; host or cells: HEK293 (human), stably transfected with human APP695 wt
Assay type: cell-based
Protocol: The compounds were investigated in accordance with the test given hereinafter.
Cellular Aβ-Lowering Assay:
Human HEK293 cells which are stably transfected with a vector expressing a cDNA of the human APP wt gene (APP695) were used to assess the potency of the compounds in a cellular assay. The cells were seeded in 96-well microtiter plates in cell culture medium (Iscove, plus 10% (v/v) fetal bovine serum, glutamine, penicillin/streptomycin) to about 80% confluence and the compounds were added at a 10× concentration in 1/10 volume of medium without FCS containing 8% DMSO (final concentration of DMSO was kept at 0.8% v/v). After 18-20 hrs incubation at 37° C. and 5% CO2 in a humidified incubator the culture supernatant was harvested for the determination of Aβ40 concentrations. 96 well ELISA plates (e.g., Nunc MaxiSorb) were coated with monoclonal antibody which specifically recognize the C-terminal end of Aβ40 (Brockhaus et al., NeuroReport 9; 1481-1486; 1998). After blocking of non-specific binding sites with e.g. 1% BSA and washing, the culture supernatants were added in suitable dilutions together with a horseradish peroxidase-coupled Aβ detection antibody (e.g., antibody 4G8, Senetek, Maryland Heights, Mo.) and incubated for 5 to 7 hrs. Subsequently the wells of the microtiter plate were washed extensively with Tris-buffered saline containing 0.05% Tween 20 and the assay was developed with tetramethylbenzidine/H2O2 in citric acid buffer. After stopping the reaction with one volume 1 N H2SO4 the reaction was measured in an ELISA reader at 450 nm wavelength. The concentrations of Aβ in the culture supernatants were calculated from a standard curve obtained with known amounts of pure Aβ peptide.

T1 sequence (P56817 46-501): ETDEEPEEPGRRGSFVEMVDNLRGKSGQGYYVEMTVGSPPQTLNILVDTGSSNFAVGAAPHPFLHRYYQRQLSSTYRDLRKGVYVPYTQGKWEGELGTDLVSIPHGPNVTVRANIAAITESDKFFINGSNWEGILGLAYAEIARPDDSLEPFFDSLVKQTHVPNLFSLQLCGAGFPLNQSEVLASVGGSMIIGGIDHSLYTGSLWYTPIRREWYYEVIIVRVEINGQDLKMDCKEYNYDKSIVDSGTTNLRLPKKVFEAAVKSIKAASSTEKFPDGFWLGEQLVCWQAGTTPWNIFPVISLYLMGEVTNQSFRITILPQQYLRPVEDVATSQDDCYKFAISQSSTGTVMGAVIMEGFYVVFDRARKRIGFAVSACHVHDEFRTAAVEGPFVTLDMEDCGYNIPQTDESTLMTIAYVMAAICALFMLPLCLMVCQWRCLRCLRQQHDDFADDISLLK

SMILES | IC50
CC(C)CCC[C@@H](C)[C@H]1CC[C@H]2[C@@H]3CC=C4C[C@@H](OC(=O)CCC(=O)NCCCC[C@H](NC(=O)[C@H]5CCCN5C(=O)[C@H](CCC(=O)O)NC(=O)[C@H](C)NC(=O)[C@@H](NC(=O)C[C@H](O)[C@H](CC(C)C)NC(=O)[C@H](CC(N)=O)NC(=O)[C@@H](NC(=O)[C@H](CCC(=O)O)NC(=O)CCOCCOCCOCCOCCNC(=O)[C@H](CC(C)C)NC(=O)[C@@H]5CCCN5C(=O)[C@H](CCCCN)NC(=O)[C@H](Cc5ccccc5)NC(=O)[C@H](Cc5ccc(O)cc5)NC(=O)[C@@H]5CCCN5C(=O)[C@@H](N)Cc5ccc(O)cc5)C(C)C)C(C)C)C(N)=O)CC[C@]4(C)[C@H]3CC[C@]12C [Example 34, Tyr-Pro-Tyr-Phe-Lys-Pro-Leu-PEG(4)-Glu-Val-Asn-Sta-Val-Ala-Glu-DPro-Lys(Chol)-NH2] (H-YPYFKPL[PEG4]EVN[Sta]VAE[dP]K(Succinyl(4-O-cholesteryl))-NH2) | 0.0235 nM
CC[C@H](C)[C@H](NC(=O)[C@H](Cc1ccccc1)NC(=O)[C@H](Cc1ccc(O)cc1)NC(=O)[C@@H]1CCCN1C(=O)[C@@H](N)Cc1ccc(O)cc1)C(=O)N1CCC[C@H]1C(=O)N[C@@H](CC(C)C)C(=O)N[C@@H](CCCCN)C(=O)NCC(=O)NCC(=O)N[C@@H](CCC(=O)O)C(=O)N[C@H](C(=O)N[C@@H](CC(N)=O)C(=O)N[C@@H](CC(C)C)[C@@H](O)CC(=O)N[C@H](C(=O)N[C@@H](C)C(=O)N[C@@H](CCC(=O)O)C(=O)N1CCC[C@@H]1C(=O)N[C@@H](CCCCNC(=O)CCC(=O)O[C@H]1CC[C@@]2(C)C(=CC[C@H]3[C@@H]4CC[C@H]([C@H](C)CCCC(C)C)[C@@]4(C)CC[C@@H]32)C1)C(N)=O)C(C)C)C(C)C [Example 40, Tyr-Pro-Tyr-Phe-Ile-Pro-Leu-Lys-Gly-Gly-Glu-Val-Asn-Sta-Val-Ala-Glu-DPro-Lys(Chol)-NH2] | 0.0235 nM
CC[C@H](C)[C@H](NC(=O)[C@H](Cc1ccccc1)NC(=O)[C@H](Cc1ccc(O)cc1)NC(=O)[C@@H]1CCCN1C(=O)[C@@H](N)CCCCN)C(=O)N1CCC[C@H]1C(=O)N[C@@H](CC(C)C)C(=O)NCC(=O)N[C@H](CCCCN)C(=O)NCC(=O)N[C@@H](CCC(=O)O)C(=O)N[C@H](C(=O)N[C@@H](CC(N)=O)C(=O)N[C@@H](CC(C)C)[C@@H](O)CC(=O)N[C@H](C(=O)N[C@@H](C)C(=O)N[C@@H](CCC(=O)O)C(=O)N1CCC[C@@H]1C(=O)N[C@@H](CCCCNC(=O)CCC(=O)O[C@H]1CC[C@@]2(C)C(=CC[C@H]3[C@@H]4CC[C@H]([C@H](C)CCCC(C)C)[C@@]4(C)CC[C@@H]32)C1)C(N)=O)C(C)C)C(C)C [Example 48, Lys-Pro-Tyr-Phe-Ile-Pro-Leu-Gly-DLys-Gly-Glu-Val-Asn-Sta-Val-Ala-Glu-DPro-Lys(Chol′estert)-NH2] (H-KPYFIPLG[dK]GEVN[Sta]VAE[dP]K(Succinyl(4-O-cholesteryl))-NH2) | 0.02 nM
CC[C@H](C)[C@H](NC(=O)[C@H](Cc1ccccc1)NC(=O)[C@H](Cc1ccc(O)cc1)NC(=O)[C@@H]1CCCN1C(=O)[C@@H](N)Cc1ccc(O)cc1)C(=O)N1CCC[C@H]1C(=O)N[C@@H](CC(C)C)C(=O)NCC(=O)N[C@H](C)C(=O)NCC(=O)N[C@@H](CCC(=O)O)C(=O)N[C@H](C(=O)N[C@@H](CC(N)=O)C(=O)N[C@@H](CC(C)C)[C@@H](O)CC(=O)N[C@H](C(=O)N[C@@H](C)C(=O)N[C@@H](CCC(=O)O)C(=O)N1CCC[C@@H]1C(=O)N[C@@H](CCCCNC(=O)CCC(=O)O[C@H]1CC[C@@]2(C)C(=CC[C@H]3[C@@H]4CC[C@H]([C@H](C)CCCC(C)C)[C@@]4(C)CC[C@@H]32)C1)C(N)=O)C(C)C)C(C)C [Example 53, Tyr-Pro-Tyr-Phe-Ile-Pro-Leu-Gly-DAla-Gly-Glu-Val-Asn-Sta-Val-Ala-Glu-DPro-Lys(Chol′ester′)-NH2] | 0.02 nM
CC[C@H](C)[C@H](NC(=O)[C@H](Cc1ccccc1)NC(=O)[C@H](Cc1ccc(O)cc1)NC(=O)[C@@H]1CCCN1C(=O)[C@@H](N)Cc1ccc(O)cc1)C(=O)N1CCC[C@H]1C(=O)N[C@@H](CC(C)C)C(=O)N[C@@H](CO)C(=O)NCC(=O)NCC(=O)N[C@@H](CCC(=O)O)C(=O)N[C@H](C(=O)N[C@@H](CC(N)=O)C(=O)N[C@@H](CC(C)C)[C@@H](O)CC(=O)N[C@H](C(=O)N[C@@H](C)C(=O)N[C@@H](CCC(=O)O)C(=O)N1CCC[C@@H]1C(=O)N[C@@H](CCCCNC(=O)CCC(=O)O[C@H]1CC[C@@]2(C)C(=CC[C@H]3[C@@H]4CC[C@H]([C@H](C)CCCC(C)C)[C@@]4(C)CC[C@@H]32)C1)C(N)=O)C(C)C)C(C)C [Example 54, Tyr-Pro-Tyr-Phe-Ile-Pro-Leu-Ser-Gly-Gly-Glu-Val-Asn-Sta-Val-Ala-Glu-DPro-Lys(Chol′ester′)-NH2] (H-YPYFIPLSGGEVN[Sta]VAE[dP]K(Succinyl(4-O-cholesteryl))-NH2) | 0.052 nM
